Values joined by “and” are separate entries in the source; they are usually repeats but may differ in a detail not shown here. Equal entries are not always repeated. Where two headings read alike, the source gives them in different places.
Key:
Assay in all cases: biochemical
Assay type in all cases: biochemical
382 unique human kinases [1] = molecular target: T1, 382 unique human kinases (Homo sapiens, UniProt P11802); settings: CDK4/cyclin D1, 10 uM
T1 construct: purchased Reaction Biology (HotSpot contract assay)
T1 sequence (P11802 whole entry): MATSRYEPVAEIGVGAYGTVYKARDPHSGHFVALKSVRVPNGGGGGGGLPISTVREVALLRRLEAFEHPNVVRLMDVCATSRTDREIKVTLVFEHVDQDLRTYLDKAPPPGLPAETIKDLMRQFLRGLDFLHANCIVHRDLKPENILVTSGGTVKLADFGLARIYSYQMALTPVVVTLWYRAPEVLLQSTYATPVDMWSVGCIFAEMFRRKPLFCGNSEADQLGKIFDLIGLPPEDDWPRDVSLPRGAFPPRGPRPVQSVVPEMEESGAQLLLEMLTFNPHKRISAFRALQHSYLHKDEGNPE

382 unique human kinases [2] = molecular target: T2, 382 unique human kinases (Homo sapiens, UniProt P22694); settings: kinase PKAcb, compound 10 uM
T2 construct: purchased Reaction Biology (HotSpot contract assay)

382 unique human kinases [3] = molecular target: T3, 382 unique human kinases (Homo sapiens, UniProt P24941); settings: for remaining activity at 10 µM: read-out: % Enzyme Activity (relative to DMSO controls)
T3 construct: purchased Reaction Biology (HotSpot contract assay)

382 unique human kinases [4] = molecular target: T4, 382 unique human kinases (Homo sapiens, UniProt P50750); settings: for remaining activity at 10 µM: read-out: % Enzyme Activity (relative to DMSO controls)
T4 construct: purchased Reaction Biology (HotSpot contract assay)
T4 sequence (P50750 whole entry): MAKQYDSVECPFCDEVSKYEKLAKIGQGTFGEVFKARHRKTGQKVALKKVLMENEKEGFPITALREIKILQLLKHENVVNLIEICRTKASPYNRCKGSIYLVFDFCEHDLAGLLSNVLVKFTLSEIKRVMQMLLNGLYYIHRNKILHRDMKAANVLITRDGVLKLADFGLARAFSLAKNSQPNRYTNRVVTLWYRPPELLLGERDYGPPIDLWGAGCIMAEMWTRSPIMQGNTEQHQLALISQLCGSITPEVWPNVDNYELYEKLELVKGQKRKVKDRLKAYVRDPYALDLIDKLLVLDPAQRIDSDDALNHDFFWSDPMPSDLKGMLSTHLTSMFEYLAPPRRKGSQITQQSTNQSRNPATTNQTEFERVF

382 unique human kinases [5] = molecular target: T5, 382 unique human kinases (Homo sapiens, UniProt Q00534); settings: kinase CDK6/cyclin D1, compound 10 uM
T5 construct: purchased Reaction Biology (HotSpot contract assay)
T5 sequence (Q00534 whole entry): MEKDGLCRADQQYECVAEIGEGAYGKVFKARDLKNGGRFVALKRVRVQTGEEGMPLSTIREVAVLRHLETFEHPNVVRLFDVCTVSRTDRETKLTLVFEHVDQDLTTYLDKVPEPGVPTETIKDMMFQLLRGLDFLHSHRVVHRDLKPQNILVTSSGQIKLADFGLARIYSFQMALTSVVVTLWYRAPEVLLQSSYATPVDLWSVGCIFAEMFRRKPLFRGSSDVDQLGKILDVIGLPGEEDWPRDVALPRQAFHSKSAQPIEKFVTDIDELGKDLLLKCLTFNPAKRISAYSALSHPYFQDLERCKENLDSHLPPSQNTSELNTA

382 unique human kinases [6] = molecular target: T6, 382 unique human kinases (Homo sapiens, UniProt Q9BXA6); settings: kinase SSTK/TSSK6, compound 10 uM
T6 construct: purchased Reaction Biology (HotSpot contract assay)
T6 sequence (Q9BXA6 whole entry): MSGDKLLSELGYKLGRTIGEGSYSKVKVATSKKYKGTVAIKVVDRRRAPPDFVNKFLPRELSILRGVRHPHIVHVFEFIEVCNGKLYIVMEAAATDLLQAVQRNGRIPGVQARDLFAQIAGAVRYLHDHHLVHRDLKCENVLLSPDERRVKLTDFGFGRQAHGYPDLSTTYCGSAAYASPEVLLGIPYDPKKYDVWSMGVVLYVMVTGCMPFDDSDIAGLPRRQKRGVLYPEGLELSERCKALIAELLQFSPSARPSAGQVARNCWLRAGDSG

382 unique human kinases [7] = system: 382 unique human kinases
[8] = read-out: % Enzyme Activity (relative to DMSO controls)
[9] = kinase CDK2/cyclin O, compound 10 uM
[10] = kinase CDK9/cyclin K, compound 10 uM

Structure (SMILES): CCNC(=O)c1noc(-c2cc(C(C)C)c(O)cc2O)c1-c1ccc(CN2CCOCC2)cc1 [Luminespib (AUY-922)]
- % Enzyme Activity (relative to DMSO controls) (382 unique human kinases [1]): 100.66%
- remaining activity at 10 µM (382 unique human kinases [1]; [8]): 103%
- % Enzyme Activity (relative to DMSO controls) (382 unique human kinases [2]): 100.86%
- remaining activity at 10 µM (382 unique human kinases [2]; [8]): 103%
- % Enzyme Activity (relative to DMSO controls) (382 unique human kinases [3]; CDK2/cyclin A, 10 uM): 97.81%
- remaining activity at 10 µM (382 unique human kinases [3]; CDK2/cyclin A, 10 uM): 97.9%
- % Enzyme Activity (relative to DMSO controls) (382 unique human kinases [3]; [9]): 100.70%
- remaining activity at 10 µM (382 unique human kinases [3]; [9]): 101%
- % Enzyme Activity (relative to DMSO controls) (382 unique human kinases [4]; CDK9/cyclin T2, 10 uM): 89.68%
- remaining activity at 10 µM (382 unique human kinases [4]; CDK9/cyclin T2, 10 uM): 89.7%
- % Enzyme Activity (relative to DMSO controls) (382 unique human kinases [4]; [10]): 104.02%
- remaining activity at 10 µM (382 unique human kinases [4]; [10]): 104%
- % Enzyme Activity (relative to DMSO controls) (382 unique human kinases [5]): 105.58%
- remaining activity at 10 µM (382 unique human kinases [5]; [8]): 106%
- % Enzyme Activity (relative to DMSO controls) (382 unique human kinases [6]): 122.22%
- remaining activity at 10 µM (382 unique human kinases [6]; [8]): 122%
- % Enzyme Activity (relative to DMSO controls) (382 unique human kinases [7]; ALK (F1174L)-EML4, 10 uM): 85.87% and 84.56%
- % Enzyme Activity (relative to DMSO controls) (382 unique human kinases [7]; ALK (F1174L)-NPM1, 10 uM): 102.87% and 100.42%
- % Enzyme Activity (relative to DMSO controls) (382 unique human kinases [7]; ALK-NPM1, 10 uM): 100.77% and 99.39%
- % Enzyme Activity (relative to DMSO controls) (382 unique human kinases [7]; ALK-TFG, 10 uM): 100.17% and 98.13%
- % Enzyme Activity (relative to DMSO controls) (382 unique human kinases [7]; BRAF (R506_K507insVLR), compound at 10 uM, duplicate values): 111.39% and 111.37%
- % Enzyme Activity (relative to DMSO controls) (382 unique human kinases [7]; BRAF (d485-489/P490Y), compound at 10 uM, duplicate values): 105.00% and 104.80%
- % Enzyme Activity (relative to DMSO controls) (382 unique human kinases [7]; BRAF-KIAA1549 (Kex15Bex9), compound at 10 uM, duplicate values): 106.11% and 102.92%
- % Enzyme Activity (relative to DMSO controls) (382 unique human kinases [7]; BRAF-KIAA1549 (Kex16Bex9), compound at 10 uM, duplicate values): 104.70% and 104.59%
- % Enzyme Activity (relative to DMSO controls) (382 unique human kinases [7]; BRAF-SRGAP3 (Sex12Bex9), compound at 10 uM, duplicate values): 107.79% and 106.99%
- % Enzyme Activity (relative to DMSO controls) (382 unique human kinases [7]; PDGFRb-TPM3, 10 uM): 63.63% and 61.80%
- % Enzyme Activity (relative to DMSO controls) (382 unique human kinases [7]; PKG1b, 10 uM): 60.28% and 59.59%
- % Enzyme Activity (relative to DMSO controls) (382 unique human kinases [7]; RET-CCDC6 (PTC1), 10 uM): 105.26% and 102.15%
- % Enzyme Activity (relative to DMSO controls) (382 unique human kinases [7]; RET-NCOA4 (PTC3), 10 uM): 95.03% and 94.64%
- % Enzyme Activity (relative to DMSO controls) (382 unique human kinases [7]; RET-PRKAR1A (PTC2), 10 uM): 95.60% and 94.13%
- % Enzyme Activity (relative to DMSO controls) (382 unique human kinases [7]; ROS1-TPM3, 10 uM): 97.28% and 96.49%
- % Enzyme Activity (relative to DMSO controls) (382 unique human kinases [7]; kinase EGFR (A763_Y764insFHEA), compound 10 uM): 98.66% and 97.53%
- % Enzyme Activity (relative to DMSO controls) (382 unique human kinases [7]; kinase EGFR (D770GY), compound 10 uM): 129.18% and 126.54%
- % Enzyme Activity (relative to DMSO controls) (382 unique human kinases [7]; kinase EGFR (D770_N771insNPG), compound 10 uM): 106.12% and 103.12%
- % Enzyme Activity (relative to DMSO controls) (382 unique human kinases [7]; kinase EGFR (d746), compound 10 uM): 98.75% and 97.31%
- % Enzyme Activity (relative to DMSO controls) (382 unique human kinases [7]; kinase EGFR (d746-750/T790M/C797S), compound 10 uM): 100.68% and 100.47%
- % Enzyme Activity (relative to DMSO controls) (382 unique human kinases [7]; kinase EGFR (d747-752/P753S), compound 10 uM): 98.74% and 98.40%
- % Enzyme Activity (relative to DMSO controls) (382 unique human kinases [7]; kinase ERBB2 (P780_Y781insGSP), compound 10 uM): 96.69% and 95.30%
- % Enzyme Activity (relative to DMSO controls) (382 unique human kinases [7]; kinase KSR1 (L639F), compound 10 uM): 103.34% and 102.74%
- % Enzyme Activity (relative to DMSO controls) (382 unique human kinases [7]; kinase PDGFRa-FIP1L1, compound 10 uM): 98.64% and 97.51%
- % Enzyme Activity (relative to DMSO controls) (382 unique human kinases [7]; kinase RET-BCR, compound 10 uM): 97.53% and 96.48%

Reference: paper PMC8550792, “Evolution of kinase polypharmacology across HSP90 drug discovery” (Cell Chemical Biology, 2021)
